Assay in all cases: growth of human tumour cells (NCI), 48 h
The test system of experiment [1] is MDA-MB-231.
For experiment [2], the system named is MDA-N.
The subject of experiment [3] is DLD-1.
The test system of experiment [4] is KM-20L2.
For experiment [5], the system named is RXF 631.
Experiment [6] deals with BT-549.
In experiment [7] the test system is Hs-578T.
Experiment [8] concerns HOP-18.

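All cell lines were grown in 96-well plates and treated with compound for 48 hours. At the GI50, growth is halved.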 The source made the active and inactive calls. Cut-off read from the data, not from the text of the source: active = GI50 up to about 1.1 µM and inactive = higher.

On to `CCOC(=O)c1csc(NC(=O)CN2CCN(C)CC2)n1`, for which the GI50 in experiment [1] and in experiment [2] was > 100 µM (inactive) each time.

In the case of `CCOc1ccc(/N=N/c2ccc3oc(=O)c(/C(C)=N\NC(=O)CC(=O)Nc4ccc(Cl)cc4)cc3c2)cc1`, the figures for the GI50 in experiment [3], in experiment [4] and in experiment [5] were 12.6 µM (inactive), > 100 µM (inactive) and 20 µM (inactive), respectively.

`CC(O)=C1C(=O)CCC1=O`: the GI50 in experiment [6] and in experiment [7] was > 100 µM (inactive) in each case.

Turning to `Cc1cc(C)n(-c2nsc3ccccc23)n1`, the GI50 in experiment [8] is 15.8 µM (inactive); in experiment [4] it was > 100 µM (inactive).

Turning to `CCOC(=O)C(NC(=O)CC)(Nc1ccccc1F)C(F)(F)F` (stereo not drawn), the GI50 in experiment [6], in experiment [7], in experiment [1] and in experiment [2] was > 100 µM (inactive) in each case.

As for `O=C1N(Cc2ccccc2)C2CSCC2N1Cc1ccccc1` (stereo not drawn), the GI50 in experiment [6] is 17.1 µM (inactive); in experiment [7], 18.6 µM (inactive); in experiment [1], 12.1 µM (inactive); in experiment [2] it was 30.2 µM (inactive).

With `CC(C)OP(=O)(OC(C)C)c1c(N)n[nH]c1Nc1ccccc1`, the GI50 in experiment [7] is 33 µM (inactive); in experiment [1], > 100 µM (inactive); in experiment [2] it was > 100 µM (inactive).

In the case of `CN1CCC23c4ccccc4NC1C21CCN(C)C3Nc2ccccc21`, the figures for the GI50 in experiment [3], in experiment [8] and in experiment [4] were > 375 µM (inactive), 343 µM (inactive) and > 239 µM (inactive), respectively.

With `N=C(N)SCc1cccc([N+](=O)[O-])c1`, the GI50 in experiment [3] is 27.2 µM (inactive); in experiment [8] it was 26.9 µM (inactive); in experiment [4], 31.7 µM (inactive).

`COc1ccc(N2C(=O)C3c4[nH]c5ccccc5c4C4CCCCCCCCCC4C3C2=O)cc1` (stereo not drawn): the GI50 in experiment [7], in experiment [1] and in experiment [2] was > 10 µM (inactive) in each case.

As for `O=C(NC(=O)c1cn(CCN2CCNCC2)c(=O)[nH]c1=O)OCc1ccccc1`, the GI50 in experiment [3] was > 100 µM (inactive).

In the case of `CCCCCCCCCCCCCCCCCCOCC(O)CO` (stereo not drawn) [BATILOL], the values for the GI50 in experiment [3], in experiment [8] and in experiment [4] were > 25 µM (inactive), 0.61 µM (active) and 19.1 µM (inactive), respectively.

Values taken from ChEMBL document CHEMBL1201862, “PubChem BioAssay data set” (2004).
